What follows are molecules tested on spontan hypertensiven Ratte (assay: Blood pressure lowering in the spontaneously hypertensive rat after oral dosing). Settings: lowest dose that still lowers blood pressure by at least 15 mm Hg, read-out: niederste noch wirksame, orale Dosis.
Assay type: in vivo
Text: Die in der folgenden Tabelle angeführten Verbindungen senken an der spontan hypertensiven Ratte den Blutdruck um mindestens 15 mm Hg. Angegeben ist die niederste noch wirksame, orale Dosis.

Structure (SMILES)	minimal effective dose
CC(NC(=O)c1ccccc1C(=O)Nc1cccnc1)C(C)(C)C (stereo not drawn) [Beispiel 26, N-(3-Pyridyl)-N'-(1,2,2-trimethylpropyl)-phtalamid]	3 mg/kg
CCOc1ccccc1NC(=O)c1ccccc1C(=O)NC(C)C(C)(C)C (stereo not drawn) [Beispiel 13, N-(2-Ethoxyphenyl)-N'-(1,2,2-trimethylpropyl)-phtalamid]	10 mg/kg
CC(NC(=O)c1ccccc1C(=O)Nc1ccccc1)C(C)(C)C (stereo not drawn) [Beispiel 12, N-Phenyl-N'-(1,2,2-trimethylpropyl)-phtalamid]	10 mg/kg

— patent publication EP0119428A2, “Biscarboxamides for treating diseases, and process for their preparation” (BAYER AG, priority 1983, dated 1984)
